In patent US7687494B2, “Substituted spirobenzazepines” (Janssen Pharmaceutica NV, priority 2003, dated 2010):

Experiments:
human V2 receptor [1] = target: T1, human V2 receptor (Homo sapiens, UniProt P30518); experiment: V2 vasopressin receptor functional activity (cAMP accumulation, V2-HEK cells); format: cell-based; design: expressed in transfected cells; host or cells: HEK-293; settings: V2 (second value of V1a/V2); vasopressin-stimulated cAMP in transfected HEK-293 cells
Method: The V2 receptor is also a G-protein coupled receptor which when activated induces an increase in cAMP turnover. Antagonism against the V2 receptor is determined by measuring cAMP accumulation in transfected HEK-293 cells expressing the human V-2 receptor (V2-HEK cells). Compounds are tested for their ability to block the stimulatory effects of vasopressin on cAMP accumulation. The cell content of cAMP is measured by radioimmunoassay using NEN flashplates.

human V1a receptor [2] = target: T2, human V1a receptor (Homo sapiens, UniProt P37288); experiment: In-vitro binding assay, 3H-arginine-8-vasopressin, V1a membranes; settings: V1a (first value of V1a/V2)
Method: (§1) Assay buffer is 50 mM Tris-Cl, 5 mM MgCl2, 0.1% BSA (pH 7.5) containing 5 μg/ml of aprotinin, leupeptin, pepstatin, 50 μg/ml bacitracin, and 1 mM Pefabloc (4-(2-Aminoethyl)-benzenesulfonyl fluoride, hydrochloride manufactured by Roche Diagnostics Corporation, Indianapolis, Ind. and distributed by Boehringer Mannheim). H3 vasopressin is ^3H-arginine-8-vasopressin (NEN Life Sciences, Boston, Mass.; 68.5 Ci/mmol, final concentration in assay is 0.65-0.75 nM). Into wells of 96-well round bottom polypropylene plates are added buffer, test compound, membrane (containing human V1a or V2 receptor), and H3 vasopressin. The reaction plates are allowed to sit at room temperature for one hour. The samples are filtered through Unifilter GF/C plates (PerkinElmer Life Sciences, Boston, Mass.) presoaked in 0.3 polyethyleneimine. The plates are washed 5 times with cold physiological saline containing 0.05% Tween 20. After drying, the bottom of the filter plates are sealed and 0.025 ml of Microscint-20 (Packard Instrument Co, Meriden, Conn.) is added to each filter. The top of the plate is sealed, and the plate is counted. Non-specific binding is determined by the addition of 1.25 μM arginine-8-vasopressin in those wells. % Inh. is calculated
(§2) [formula] as follows: (B) V1a Vasopressin Receptor Functional Activity

human V1a receptor [3] = target: T2, human V1a receptor; experiment: V1a vasopressin receptor functional activity (intracellular calcium mobilization, FLIPR, V1a-HEK cells); format: cell-based; settings: V1a (first value of V1a/V2); vasopressin-challenged transfected HEK-293 cells
Method: The V1a receptor is a G-protein coupled receptor, which upon activation triggers an increase in intracellular calcium mobilization. To evaluate compounds for their functional V1a receptor activity, HEK-293 cells were transfected with the human V1a receptor (V1a-HEK cells). HEK-293 cells were grown in DMEM (Dulbecco's modified Eagle Media) supplemented with 10% FBS and glutamine. HEK-cells were passed biweekly by trypsinization and seeded into 96 well plates at 33,000 cells per well. HEK-293 cells were transfected with human V1a receptor DNA using DMRIE-C reagent from Life Technologies (Carlsbad, Calif.). Stable lines were generated by selecting cells grown in culture media containing geneticin. After growing in Packard Clear-View black 96 well plates for 4-6 days, V1a-HEK cells were loaded with the calcium-sensitive fluorescence dye, FLUO-3 AM. Changes in intracellular calcium mobilization were measured by quantitating intracellular fluorescence using FLIPR (Fluorometric Imaging Plate Reader; Molecular Devices, Sunnyvale, Calif.). Test compounds were first added to the cells and the resulting changes in fluorescence measured to detect receptor agonistic activity. Five minutes later the cells were challenged with vasopressin to test compounds for their antagonistic activity. Receptor antagonists inhibit the ability of vasopressin to stimulate increases in intracellular fluorescence. IC50's were calculated.

human V2 receptor [4] = target: T1, human V2 receptor; experiment: In-vitro binding assay, 3H-arginine-8-vasopressin, V2 membranes; settings: V2 (second value of V1a/V2)
Method: as §1, §2

T1 sequence (P30518 whole entry): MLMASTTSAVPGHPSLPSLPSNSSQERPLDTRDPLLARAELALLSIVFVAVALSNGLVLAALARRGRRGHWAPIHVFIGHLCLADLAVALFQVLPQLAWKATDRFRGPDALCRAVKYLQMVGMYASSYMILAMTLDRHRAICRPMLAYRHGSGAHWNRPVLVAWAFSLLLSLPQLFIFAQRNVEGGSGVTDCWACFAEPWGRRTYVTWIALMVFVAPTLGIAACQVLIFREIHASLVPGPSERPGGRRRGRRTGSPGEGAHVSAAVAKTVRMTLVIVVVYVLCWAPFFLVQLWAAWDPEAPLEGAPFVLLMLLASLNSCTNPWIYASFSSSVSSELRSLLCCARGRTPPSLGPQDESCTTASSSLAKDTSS
T2 sequence (P37288 whole entry): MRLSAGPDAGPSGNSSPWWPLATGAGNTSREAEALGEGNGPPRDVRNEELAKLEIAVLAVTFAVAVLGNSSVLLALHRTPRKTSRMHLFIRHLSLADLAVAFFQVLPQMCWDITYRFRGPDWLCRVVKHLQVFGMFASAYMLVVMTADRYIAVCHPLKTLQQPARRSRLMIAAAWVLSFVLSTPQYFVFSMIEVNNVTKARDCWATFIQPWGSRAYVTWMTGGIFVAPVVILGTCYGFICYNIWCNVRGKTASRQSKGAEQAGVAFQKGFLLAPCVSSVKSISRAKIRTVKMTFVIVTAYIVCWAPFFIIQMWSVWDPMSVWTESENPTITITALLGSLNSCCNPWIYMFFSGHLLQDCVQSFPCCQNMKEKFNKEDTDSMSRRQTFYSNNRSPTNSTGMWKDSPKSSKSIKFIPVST

| SMILES | IC50 (human V2 receptor [1]) [nM] | IC50 (human V1a receptor [2]) [nM] | IC50 (human V1a receptor [3]) [nM] | IC50 (human V2 receptor [4]) [nM] |
| --- | --- | --- | --- | --- |
| CCOc1cc(C(=O)N2CC[C@]3(C=C(C(=O)O)CC3)Cc3ccccc32)ccc1NC(=O)c1cc(F)ccc1Cl [Compound 31, (R)-4-(2-Chloro-5-fluorobenzoyl-3-ethoxy-4-aminobenzoyl)-4-aza-3′-carboxy-[6,4]-spiro-[5,6]-benzoundec-2′-ene] | 150 | 8 | 50 | 71 |
| O=C(O)C1=C[C@@]2(CC1)CCN(C(=O)c1ccc(NC(=O)c3cc(F)ccc3Cl)cc1)c1ccccc1C2 [reference compound] | 100 | 13 | 380 | 53 |
| CN(C)CCNC(=O)C1=CC2(CC1)CCN(C(=O)c1ccc(NC(=O)c3ccccc3-c3ccccc3)cc1)c1ccccc1C2 (racemic) [A, 4-(2-phenylbenzoyl-4-aminobenzoyl)-3′-[2-(N,N-dimethylaminoethylcarbony)]-4-aza-[6,4]-spiro-[5,6]-benzoundec-2′-ene, reference compound] |  | 5 | 4 | 11 |
| COc1cc(C(=O)N2CC[C@]3(C=C(C(=O)O)CC3)Cc3ccccc32)ccc1NC(=O)c1cc(F)ccc1Cl [Compound 29, (R)-4-(2-Chloro-5-fluorobenzoyl-3-methoxy-4-aminobenzoyl)-4-aza-3′-(carboxy)-[6,4]-spiro-[5,6]-benzoundec-2′-ene] | 52 | 5 | 38 | 30 |
